# Measured values published in patent US8853230B2, “Inhibitors of JAK” (Portola Pharmaceuticals, Inc., priority 2009, dated 2014).
# Key:
# JAK1 = biological target: T1, JAK1 (Homo sapiens, UniProt P23458); assay: Z'-LYTE kinase assay, JAK1 tyrosine phosphorylation activity; format: biochemical; conditions: read-out: JAK 1 IC50
# T1 construct: 5 μl of catalytic domain recombinant Kinase enzyme+Tyr peptide substrate (Invitrogen, Calif.); purchased Invitrogen
# Outline: (§1)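 Recombinant catalytic-domain kinase was incubated with coumarin/fluorescein-labelled Tyr6 peptide, ATP and compound (1% DMSO final) for 1 h at room temperature. Protease development then ran 1 h at room temperature. Emission ratio at 445/520 nm (excitation 400 nm) gave percent phosphorylation; IC50s came from 4-parameter logistic fits.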
# JAK2 = biological target: T2, JAK2 (Homo sapiens, UniProt O60674); assay: Z'-LYTE kinase assay, JAK2 tyrosine phosphorylation activity; format: biochemical
# T2 construct: 5 μl of catalytic domain recombinant Kinase enzyme+Tyr peptide substrate (Invitrogen, Calif.); purchased Invitrogen
# Outline: as §1
# TYK2 = biological target: T3, TYK2 (Homo sapiens, UniProt P29597); assay: Z'-LYTE kinase assay, TYK2 tyrosine phosphorylation activity; format: biochemical
# T3 construct: 5 μl of catalytic domain recombinant Kinase enzyme+Tyr peptide substrate (Invitrogen, Calif.); purchased Invitrogen
# T3 sequence (P29597 897-1176 limits assumed): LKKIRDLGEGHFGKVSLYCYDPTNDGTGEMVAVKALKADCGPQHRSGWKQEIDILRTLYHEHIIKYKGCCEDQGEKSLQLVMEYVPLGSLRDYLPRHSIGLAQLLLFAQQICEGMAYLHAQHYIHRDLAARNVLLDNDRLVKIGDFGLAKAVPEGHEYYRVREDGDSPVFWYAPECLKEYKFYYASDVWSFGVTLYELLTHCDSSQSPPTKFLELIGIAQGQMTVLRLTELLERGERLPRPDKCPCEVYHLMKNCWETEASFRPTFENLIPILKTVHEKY
# Outline: as §1
# JAK3 = biological target: T4, JAK3 (Homo sapiens, UniProt P52333); assay: Z'-LYTE kinase assay, JAK3 tyrosine phosphorylation activity; format: biochemical
# T4 construct: 5 μl of catalytic domain recombinant Kinase enzyme+Tyr peptide substrate (Invitrogen, Calif.); purchased Invitrogen
# Outline: as §1
# Syk = Syk (Homo sapiens, UniProt P43405); assay: Syk IC50 (Table 1; method not given); format: biochemical
# [1] = system: IL4-induced phospho STAT6 formation in Ramos B lymphocytes; assay: Inhibition of IL4-induced phospho STAT6 formation in Ramos B lymphocytes (flow cytometry); format: cell-based, human; conditions: Homo sapiens; for inhibition at 0.2 µM: 200 nM compound, read-out: % Inhibition of IL-4 Induced STAT6 Phosphorylation 200 nM; for inhibition at 1 µM: 1 μM compound, read-out: % Inhibition of IL-4 Induced STAT6 Phosphorylation 1 μM
# Outline: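 Human Ramos B cells (0.5 million) pre-incubated 1 h at 37°C/5% CO2 with compound or DMSO, then stimulated with 1 ng/ml IL4 for 10 min. Cells were PFA-fixed, methanol-permeabilized and stained with Alexa-anti-phosphoSTAT6 (Y641); flow cytometry mean fluorescence gave percent inhibition of the IL4 signal.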
# T2 sequence (O60674 849-1124 limits assumed): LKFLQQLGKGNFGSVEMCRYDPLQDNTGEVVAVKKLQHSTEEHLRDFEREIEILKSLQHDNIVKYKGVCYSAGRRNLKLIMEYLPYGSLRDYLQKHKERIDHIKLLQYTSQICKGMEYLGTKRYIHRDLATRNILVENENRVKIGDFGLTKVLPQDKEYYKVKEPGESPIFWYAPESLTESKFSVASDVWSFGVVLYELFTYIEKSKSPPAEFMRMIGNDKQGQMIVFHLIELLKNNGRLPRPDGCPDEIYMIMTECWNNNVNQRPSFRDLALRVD
# T1 sequence (P23458 875-1153 limits assumed): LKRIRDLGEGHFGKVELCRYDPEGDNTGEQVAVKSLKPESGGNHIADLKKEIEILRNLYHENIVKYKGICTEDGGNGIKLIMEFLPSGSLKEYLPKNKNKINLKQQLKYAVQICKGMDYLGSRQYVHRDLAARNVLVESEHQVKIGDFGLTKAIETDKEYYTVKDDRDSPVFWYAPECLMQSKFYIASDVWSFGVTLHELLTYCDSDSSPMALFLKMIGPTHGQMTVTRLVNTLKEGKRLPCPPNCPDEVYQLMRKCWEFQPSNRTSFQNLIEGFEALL
# T4 sequence (P52333 822-1111 limits assumed): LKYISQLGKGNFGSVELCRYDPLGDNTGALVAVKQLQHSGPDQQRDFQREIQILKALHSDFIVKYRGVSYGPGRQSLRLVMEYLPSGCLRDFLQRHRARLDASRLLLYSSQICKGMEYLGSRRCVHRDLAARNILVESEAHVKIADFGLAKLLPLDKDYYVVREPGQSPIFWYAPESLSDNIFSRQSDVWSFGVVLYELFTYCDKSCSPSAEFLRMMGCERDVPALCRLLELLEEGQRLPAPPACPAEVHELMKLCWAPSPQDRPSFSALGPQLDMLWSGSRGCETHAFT
Structure (SMILES),IC50 (JAK1) [nM],IC50 (JAK2) [nM],IC50 (TYK2) [nM],IC50 (JAK3) [nM],IC50 (Syk) [nM],inhibition at 0.2 µM [1] [%],inhibition at 1 µM [1] [%]
"CCC(=O)Nc1cccc(Nc2ncc(C(N)=O)c(NCc3ccccc3)n2)c1 [Example 28, 4-(benzylamino)-2-(3-propionamidophenylamino)pyrimidine-5-carboxamide]",10 to 100,10 to 100,1 to 10,1 to 10,> 1000,32,77.7
"NC(=O)c1cnc(Nc2cccc(NC(=O)N3CCCC3)c2)nc1NCc1ccccc1 [Example 40, 4-(benzylamino)-2-(3-(pyrrolidine-1-carboxamido)phenylamino)pyrimidine-5-carboxamide]",10 to 100,10 to 100,1 to 10,< 1,> 1000,47.2,78.8
"NC(=O)c1cnc(Nc2ccc(Cl)c(NC(=O)N3CCCC3)c2)nc1NCc1ccccc1 [Example 130, 4-(benzylamino)-2-(4-chloro-3-(pyrrolidine-1-carboxamido)phenylamino)pyrimidine-5-carboxamide]",100 to 1000,100 to 1000,10 to 100,1 to 10,> 1000,0.7,19
"COCC(=O)Nc1cccc(Nc2ncc(C(N)=O)c(NC(C)C)n2)c1 [Example 57, 4-(isopropylamino)-2-(3-(2-methoxyacetamido)phenylamino)pyrimidine-5-carboxamide]",10 to 100,10 to 100,10 to 100,1 to 10,100 to 1000,55,76.5
"CC(=O)Nc1cccc(Nc2ncc(C(N)=O)c(N[C@H](CO)Cc3cnc[nH]3)n2)c1 [Example 60, (S)-2-(3-acetamidophenylamino)-4-(1-hydroxy-3-(1H-imidazol-5-yl)propan-2-ylamino)pyrimidine-5-carboxamide]",100 to 1000,100 to 1000,100 to 1000,10 to 100,> 1000,12.5,23
"CC(=O)Nc1cccc(Nc2ncc(C(N)=O)c(NCC3CCCN(C(=O)OCc4ccccc4)C3)n2)c1 (stereo not drawn) [Example 115, Benzyl 3-((2-(3-acetamidophenylamino)-5-carbamoylpyrimidin-4-ylamino)methyl)piperidine-1-carboxylate]",100 to 1000,100 to 1000,100 to 1000,10 to 100,> 1000,12.3,53.7
"CCOC(=O)Nc1cccc(Nc2ncc(C(N)=O)c(NCc3ccccc3)n2)c1 [Example 31, ethyl 3-(4-(benzylamino)-5-carbamoylpyrimidin-2-ylamino)phenylcarbamate]",100 to 1000,100 to 1000,10 to 100,1 to 10,> 1000,13.7,37
"CNC(=O)Nc1cc(Nc2ncc(C(N)=O)c(NCc3ccccc3)n2)ccc1Cl [Example 131, 4-(benzylamino)-2-(4-chloro-3-(3-methylureido)phenylamino)pyrimidine-5-carboxamide]",> 1000,100 to 1000,10 to 100,1 to 10,> 1000,0.3,4.3
"C[C@@H](Nc1nc(Nc2cccc(NC(=O)N3CC=CC3)c2)ncc1C(N)=O)c1ccccc1 [Example 121, (R)-2-(3-(2,5-dihydro-1H-pyrrole-1-carboxamido)phenylamino)-4-(1-phenylethylamino)pyrimidine-5-carboxamide]",100 to 1000,10 to 100,10 to 100,1 to 10,> 1000,18.3,61.7
"C[C@@H](Nc1nc(Nc2cccc(NC(=O)N3CC[C@H](O)C3)c2)ncc1C(N)=O)c1ccccc1 [Example 128, 2-(3-((S)-3-hydroxypyrrolidine-1-carboxamido)phenylamino)-4-((R)-1-phenylethylamino)pyrimidine-5-carboxamide]",10 to 100,10 to 100,10 to 100,< 1,> 1000,31.7,82.7
"NC(=O)c1cnc(Nc2cccc(NC(=O)C3CC3)c2)nc1NCc1ccccc1 [Example 26, 4-(benzylamino)-2-(3-(cyclopropanecarboxamido)phenylamino)pyrimidine-5-carboxamide]",100 to 1000,10 to 100,1 to 10,1 to 10,> 1000,7.3,45.7
"COC(=O)Nc1cc(Nc2ncc(C(N)=O)c(NCc3ccccc3)n2)ccc1Cl [Example 32, methyl 5-(4-(benzylamino)-5-carbamoylpyrimidin-2-ylamino)-2-chlorophenylcarbamate]",100 to 1000,100 to 1000,10 to 100,10 to 100,> 1000,27,65
"CC(=O)Nc1cccc(Nc2ncc(C(N)=O)c(NCC3CCCN(C(N)=O)C3)n2)c1 (stereo not drawn) [Example 117, 2-(3-acetamidophenylamino)-4-((1-carbamoylpiperidin-3-yl)methylamino)pyrimidine-5-carboxamide]",10 to 100,1 to 10,1 to 10,< 1,100 to 1000,4.5,29.5
"COCC(=O)Nc1cccc(Nc2ncc(C(N)=O)c(NCc3ccccc3)n2)c1 [Example 29, 4-(benzylamino)-2-(3-(2-methoxyacetamido)phenylamino)pyrimidine-5-carboxamide]",10 to 100,10 to 100,1 to 10,1 to 10,> 1000,37.5,80
"CC(=O)Nc1cccc(Nc2ncc(C(N)=O)c(N[C@H](CO)c3ccccc3)n2)c1 [Example 93, (S)-2-(3-acetamidophenylamino)-4-(2-hydroxy-1-phenylethylamino)pyrimidine-5-carboxamide]",100 to 1000,10 to 100,10 to 100,1 to 10,> 1000,20,53
"CC(=O)Nc1cccc(Nc2ncc(C(N)=O)c(NCc3ccccc3)n2)c1 [Example 17, 2-(3-acetamidophenylamino)-4-(benzylamino)pyrimidine-5-carboxamide]",10 to 100,1 to 10,1 to 10,< 1,100 to 1000,34,73.7
"CC(=O)Nc1cccc(Nc2ncc(C(N)=O)c(NCC3CCCN(C(C)=O)C3)n2)c1 (stereo not drawn) [Example 119, 2-(3-acetamidophenylamino)-4-((1-acetylpiperidin-3-yl)methylamino)pyrimidine-5-carboxamide]",10 to 100,10 to 100,10 to 100,1 to 10,100 to 1000,9,63
"NC(=O)c1cnc(Nc2cccc(NC(=O)C3CCC3)c2)nc1NCc1ccccc1 [Example 27, 4-(benzylamino)-2-(3-(cyclobutanecarboxamido)phenylamino)pyrimidine-5-carboxamide]",100 to 1000,10 to 100,10 to 100,1 to 10,> 1000,7,54.3
"NC(=O)c1cnc(Nc2cccc(NC(=O)C3CCC3)c2)nc1NC1CCCC1 [Example 20, 2-(3-(cyclobutanecarboxamido)phenylamino)-4-(cyclopentylamino)pyrimidine-5-carboxamide]",10 to 100,10 to 100,1 to 10,1 to 10,100 to 1000,41.3,89.6
"CC(C)OC(=O)Nc1cccc(Nc2ncc(C(N)=O)c(NCc3ccccc3)n2)c1 [Example 41, isopropyl 3-(4-(benzylamino)-5-carbamoylpyrimidin-2-ylamino)phenylcarbamate]",> 1000,100 to 1000,10 to 100,10 to 100,> 1000,50.7,95.3
"NC(=O)Nc1cccc(Nc2ncc(C(N)=O)c(NCc3ccccc3)n2)c1 [Example 38, 4-(benzylamino)-2-(3-ureidophenylamino)pyrimidine-5-carboxamide]",10 to 100,10 to 100,1 to 10,1 to 10,100 to 1000,41.3,82.7
